Measurements from BindingDB's records for doi:10.1021/jm970522y (Parke-Davis Pharmaceutical Research, 1997).

Each compound was assayed against T1, Dimer of Gag-Pol polyprotein [489-587] (Human immunodeficiency virus 1, UniProt P12497) (assay: Protease Inhibition Assay). Settings: pH 6.2; 37 °C.
T1 construct: 489-587
Experimental: For determination of IC50 values, HIV-1 protease was added to assay buffer containing inhibitor and the substrate (H-His-Lys-Ala-Arg-Val-Leu- (p-NO2) Phe-Glu-Ala-norleucine-Ser-NH2). The Leu- (p-NO2) Phe bond of the substrate was cleaved by the enzyme, and the substrate and products were separated by reversed-phase HPLC. Absorbance was measured at 220 nm, peak areas were determined, and percentage conversion to product was calculated.

SMILES	IC50 [nM]
Cc1cc(SC2C(=O)CC(CCc3ccc(O)cc3)(c3ccc(O)cc3)OC2=O)c(C(C)(C)C)cc1CO (stereo not drawn) [3-{[2-tert-butyl-4-(hydroxymethyl)-5-methylphenyl]sulfanyl}-4-hydroxy-6-(4-hydroxyphenyl)-6-[2-(4-hydroxyphenyl)ethyl]-5,6-dihydro-2H-pyran-2-one]	120
Cc1cc(SC2C(=O)CC(CCc3ccccc3)(c3ccc(OCCO)cc3)OC2=O)c(C(C)(C)C)cc1OCCO (stereo not drawn) [3-{[2-tert-butyl-4-(2-hydroxyethoxy)-5-methylphenyl]sulfanyl}-4-hydroxy-6-[4-(2-hydroxyethoxy)phenyl]-6-(2-phenylethyl)-5,6-dihydro-2H-pyran-2-one]	6.4
Cc1cc(SC2C(=O)CC(CCc3ccccc3)(c3ccc(OCCO)cc3)OC2=O)c(C(C)(C)C)cc1O (stereo not drawn) [3-[(2-tert-butyl-4-hydroxy-5-methylphenyl)sulfanyl]-4-hydroxy-6-[4-(2-hydroxyethoxy)phenyl]-6-(2-phenylethyl)-5,6-dihydro-2H-pyran-2-one]	3.7
COc1cc(C(C)(C)C)c(SC2C(=O)CC(CCc3ccccc3)(c3ccccc3)OC2=O)cc1C (stereo not drawn) [3-[(2-tert-butyl-4-methoxy-5-methylphenyl)sulfanyl]-4-hydroxy-6-phenyl-6-(2-phenylethyl)-5,6-dihydro-2H-pyran-2-one]	15
Cc1ccc(C(C)(C)C)c(SC2C(=O)CC(CCc3ccccc3)(c3ccccc3)OC2=O)c1 (stereo not drawn) [4-Hydroxy-5,6-dihydropyrone deriv. 49]	35
COCc1cc(C(C)(C)C)c(SC2C(=O)CC(CCc3ccccc3)(c3ccc(OCCO)cc3)OC2=O)cc1C (stereo not drawn) [3-{[2-tert-butyl-4-(methoxymethyl)-5-methylphenyl]sulfanyl}-4-hydroxy-6-[4-(2-hydroxyethoxy)phenyl]-6-(2-phenylethyl)-5,6-dihydro-2H-pyran-2-one]	4.5
Cc1ccc(C(C)(C)C)c(SC2C(=O)CC(CCc3ccc(O)cc3)(c3ccccc3)OC2=O)c1 (stereo not drawn) [PD 178390 Analog 1]	11
Cc1ccc(C(C)(C)C)c(SC2C(=O)CC(CCc3ccc(N)cc3)(c3ccccc3)OC2=O)c1 (stereo not drawn) [6-[2-(4-aminophenyl)ethyl]-3-[(2-tert-butyl-5-methylphenyl)sulfanyl]-4-hydroxy-6-phenyl-5,6-dihydro-2H-pyran-2-one]	24
Cc1cc(SC2C(=O)CC(CCc3ccc(N)cc3)(c3ccccc3)OC2=O)c(C(C)(C)C)cc1CO (stereo not drawn) [PD 178390 Analog 33]	3.1
Cc1cc(SC2C(=O)CC(CCc3ccccc3)(c3ccccc3)OC2=O)c(C(C)(C)C)cc1CO (stereo not drawn) [PD 178390 Analog 38]	6.6
Cc1cc(SC2C(=O)CC(CCc3ccc(N)cc3)(C3CCCCC3)OC2=O)c(C(C)(C)C)cc1CO (stereo not drawn) [PD 178390 Analog 36]	3.2
Cc1ccc(C(C)(C)C)c(SC2C(=O)CC(CCc3ccccc3)(c3ccc(OCCO)cc3)OC2=O)c1 (stereo not drawn) [3-[(2-tert-butyl-5-methylphenyl)sulfanyl]-4-hydroxy-6-[4-(2-hydroxyethoxy)phenyl]-6-(2-phenylethyl)-5,6-dihydro-2H-pyran-2-one]	12
Cc1cc(SC2C(=O)CC(C)(CCc3ccc(O)cc3)OC2=O)c(C(C)(C)C)cc1CO (stereo not drawn) [PD 178390 Analog 12]	4.3
Cc1cc(SC2C(=O)CC(CCc3ccc(N)cc3)(C(C)C)OC2=O)c(C(C)(C)C)cc1CO (stereo not drawn) [6-[2-(4-aminophenyl)ethyl]-3-{[2-tert-butyl-4-(hydroxymethyl)-5-methylphenyl]sulfanyl}-4-hydroxy-6-(propan-2-yl)-5,6-dihydro-2H-pyran-2-one]	2.7
Cc1cc(SC2C(=O)CC(CCc3cccc(O)c3)(c3ccccc3)OC2=O)c(C(C)(C)C)cc1CO (stereo not drawn) [3-{[2-tert-butyl-4-(hydroxymethyl)-5-methylphenyl]sulfanyl}-4-hydroxy-6-[2-(3-hydroxyphenyl)ethyl]-6-phenyl-5,6-dihydro-2H-pyran-2-one]	2.5
Cc1cc(SC2C(=O)CC(CCc3cccc(N)c3)(c3ccccc3)OC2=O)c(C(C)(C)C)cc1CO (stereo not drawn) [6-[2-(3-aminophenyl)ethyl]-3-{[2-tert-butyl-4-(hydroxymethyl)-5-methylphenyl]sulfanyl}-4-hydroxy-6-phenyl-5,6-dihydro-2H-pyran-2-one]	4
Cc1ccc(C(C)(C)C)c(SC2C(=O)CC(CCc3ccccc3)(c3ccc(O)cc3)OC2=O)c1 (stereo not drawn) [3-[(2-tert-butyl-5-methylphenyl)sulfanyl]-4-hydroxy-6-(4-hydroxyphenyl)-6-(2-phenylethyl)-5,6-dihydro-2H-pyran-2-one]	40
Cc1cc(SC2C(=O)CC(CCc3ccc(O)cc3)(C(C)C)OC2=O)c(C(C)(C)C)cc1CO (stereo not drawn) [3-{[2-tert-butyl-4-(hydroxymethyl)-5-methylphenyl]sulfanyl}-4-hydroxy-6-[2-(4-hydroxyphenyl)ethyl]-6-(propan-2-yl)-5,6-dihydro-2H-pyran-2-one]	3.6
Cc1ccc(C(C)(C)C)c(SC2C(=O)CC(CCc3ccccc3)(c3ccc(N)cc3)OC2=O)c1 (stereo not drawn) [6-(4-aminophenyl)-3-[(2-tert-butyl-5-methylphenyl)sulfanyl]-4-hydroxy-6-(2-phenylethyl)-5,6-dihydro-2H-pyran-2-one]	32
Cc1cc(SC2C(=O)CC(CCc3ccccc3)(c3ccc(OCCO)cc3)OC2=O)c(C(C)(C)C)cc1CO (stereo not drawn) [3-{[2-tert-butyl-4-(hydroxymethyl)-5-methylphenyl]sulfanyl}-4-hydroxy-6-[4-(2-hydroxyethoxy)phenyl]-6-(2-phenylethyl)-5,6-dihydro-2H-pyran-2-one]	1.4
Cc1cc(SC2C(=O)CC(CCc3ccccc3)(c3ccccc3)OC2=O)c(C(C)(C)C)cc1OCCO (stereo not drawn) [PD 178390 Analog 41]	6.8
Cc1cc(SC2C(=O)CC(CCc3ccc(O)cc3)(C3CCCCC3)OC2=O)c(C(C)(C)C)cc1CO (stereo not drawn) [PD 178390 Analog 21]	4.1
Cc1cc(SC2C(=O)CC(CCc3ccccc3)(c3ccccc3)OC2=O)c(C(C)(C)C)cc1O (stereo not drawn) [3-[(2-tert-butyl-4-hydroxy-5-methylphenyl)sulfanyl]-4-hydroxy-6-phenyl-6-(2-phenylethyl)-5,6-dihydro-2H-pyran-2-one]	33
